Assay results: patent US12091405B2, “Substituted pyrazole compounds as indoleamine 2,3-dioxygenase inhibitors” (Merck Sharp & Dohme LLC, priority 2018, dated 2024)
pIC50: −log10 of the molar value.

Target: IDO1 (Homo sapiens, UniProt P14902)
Test: IDO1 Cellular Assay in HeLa Cells Stimulated with IFNγ
Type: cell-based
Details: IFNγ 100 ng/mL, 300 uM L-tryptophan, about 48 hours, fluorescence readout, read-out: IDO1 HELA Cell Assay, IC50

IDO1, sequence (P14902 whole entry): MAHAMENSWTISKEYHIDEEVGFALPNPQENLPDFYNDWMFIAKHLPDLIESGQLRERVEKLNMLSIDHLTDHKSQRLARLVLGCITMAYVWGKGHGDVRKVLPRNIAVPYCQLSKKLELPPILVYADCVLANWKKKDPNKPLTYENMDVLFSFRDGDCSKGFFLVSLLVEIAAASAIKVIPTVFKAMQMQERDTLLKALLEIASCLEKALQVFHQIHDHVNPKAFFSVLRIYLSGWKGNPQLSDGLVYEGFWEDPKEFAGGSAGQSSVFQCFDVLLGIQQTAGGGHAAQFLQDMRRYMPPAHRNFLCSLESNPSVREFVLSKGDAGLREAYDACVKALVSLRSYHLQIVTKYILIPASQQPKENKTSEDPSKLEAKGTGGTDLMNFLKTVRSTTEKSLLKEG

SMILES	pIC50
Cc1ccc(C2CCN(C(=O)Cn3nc(C(=O)N4C[C@@H](C)O[C@@H](C)C4)c4c3CCC4)CC2)cc1C [Example 89, 2-{3-[(2R,6S)-2,6-dimethylmorpholine-4-carbonyl]-5,6-dihydrocyclopenta[c]pyrazol-1(4H)-yl}-1-[4-(3,4-dimethylphenyl)piperidin-1-yl]ethan-1-one]	8.06
CCc1cccc(C2CCN(C(=O)Cn3nc(C(=O)N4C[C@@H](C)O[C@@H](C)C4)c4c3CCC4)CC2)c1 [Example 96, 2-{3-[(2R,6S)-2,6-dimethylmorpholine-4-carbonyl]-5,6-dihydrocyclopenta[c]pyrazol-1(4H)-yl}-1-[4-(3-ethylphenyl)piperidin-1-yl]ethan-1-one]	7.67
C[C@@H]1CN(C(=O)c2nn(CC(=O)N3CCC(c4cccc5c4CCC5)CC3)c3c2CCC3)C[C@H](C)O1 [Example 86, 1-[4-(2,3-dihydro-1H-inden-4-yl)piperidin-1-yl]-2-{3-[(2R,6S)-2,6-dimethylmorpholine-4-carbonyl]-5,6-dihydrocyclopenta[c]pyrazol-1(4H)-yl}ethan-1-one]	8.14
Cc1cccc(C2CCN(C(=O)Cn3nc(C(=O)N4CCN(C(=O)CO)CC4)c4c3CCC4)CC2)c1C [Example 47, 1-(4-(2,3-dimethylphenyl)piperidin-1-yl)-2-(3-(4-(2-hydroxyacetyl)piperazine-1-carbonyl)-5,6-dihydrocyclopenta[c]pyrazol-1(4H)-yl)ethanone]	7.75
C[C@@H]1CN(C(=O)c2nn(CC(=O)N3CC[C@@H](c4ccccc4)[C@@H](C)C3)c3c2CCC3)C[C@H](C)O1 [Example 79, 2-{3-[(2R,6S)-2,6-dimethylmorpholine-4-carbonyl]-5,6-dihydrocyclopenta[c]pyrazol-1(4H)-yl}-1-[(3R,4R)-3-methyl-4-phenylpiperidin-1-yl]ethan-1-one]	6.45
Cc1cc(F)ccc1C1CCN(C(=O)Cn2nc(C(=O)N3CC[C@@H](O)[C@H](F)C3)c3c2CCC3)CC1 [Example 54, 1-(4-(4-fluoro-2-methylphenyl)piperidin-1-yl)-2-(3-((3R,4R)-3-fluoro-4-hydroxypiperidine-1-carbonyl)-5,6-dihydrocyclopenta[c]pyrazol-1(4H)-yl)ethanone]	6.79
Cc1cccc(C2(F)CCN(C(=O)Cn3nc(C(=O)N4CCC(OCCO)CC4)c4c3C[C@H]3C[C@@H]43)CC2)c1C [Example 8, 1-(4-(2,3-dimethylphenyl)-4-fluoropiperidin-1-yl)-2-((3bR,4aR)-3-(4-(2-hydroxyethoxy)piperidine-1-carbonyl)-3b,4,4a,5-tetrahydro-1H-cyclopropa[3,4]cyclopenta[1,2-c]pyrazol-1-yl)ethanone]	9.00
C[C@@H]1CN(C(=O)c2nn(CC(=O)N3CCC(c4ccccc4C(F)(F)F)C3)c3c2CCC3)C[C@H](C)O1 (stereo partly drawn) [Example 73, 2-{3-[(2R,6S)-2,6-dimethylmorpholine-4-carbonyl]-5,6-dihydrocyclopenta[c]pyrazol-1(4H)-yl}-1-{3-[2-(trifluoromethyl)phenyl]pyrrolidin-1-yl}ethan-1-one]	6.82
C[C@@H]1CN(C(=O)c2nn(CC(=O)N3CCC(c4cccc5ccccc45)CC3)c3c2CCC3)C[C@H](C)O1 [Example 69, 2-{3-[(2R,6S)-2,6-dimethylmorpholine-4-carbonyl]-5,6-dihydrocyclopenta[c]pyrazol-1(4H)-yl}-1-[4-(naphthalen-1-yl)piperidin-1-yl]ethan-1-one]	8.19
Cc1cc(C2CCN(C(=O)Cn3nc(C(=O)N4C[C@@H](C)O[C@@H](C)C4)c4c3CCC4)CC2)ccc1F [Example 94, 2-{3-[(2R,6S)-2,6-dimethylmorpholine-4-carbonyl]-5,6-dihydrocyclopenta[c]pyrazol-1(4H)-yl}-1-[4-(4-fluoro-3-methylphenyl)piperidin-1-yl]ethan-1-one]	7.72
Cc1cccc(C2CCN(C(=O)Cn3nc(C(=O)N4CCC(O)CC4)c4c3CCC4)CC2(F)F)c1C (single isomer, unassigned) [Example 15, 1-(4-(2,3-dimethylphenyl)-3,3-difluoropiperidin-1-yl)-2-(3-(4-hydroxypiperidine-1-carbonyl)-5,6-dihydrocyclopenta[c]pyrazol-1(4H)-yl)ethanone]	7.94
C[C@@H]1CN(C(=O)c2nn(CC(=O)N3CCC(F)(c4ccccc4)CC3)c3c2CCC3)C[C@H](C)O1 [Example 63, 2-[3-[(2R,6S)-2,6-dimethylmorpholine-4-carbonyl]-5,6-dihydro-4H-cyclopenta[c]pyrazol-1-yl]-1-(4-fluoro-4-phenyl-1-piperidyl)ethanone]	6.53
C[C@@H]1CN(C(=O)c2nn(CC(=O)N3CCC(C)(c4ccccc4)CC3)c3c2CCC3)C[C@H](C)O1 [Example 66, 2-{3-[(2R,6S)-2,6-dimethylmorpholine-4-carbonyl]-5,6-dihydrocyclopenta[c]pyrazol-1(4H)-yl}-1-(4-methyl-4-phenylpiperidin-1-yl)ethan-1-one]	7.36
C[C@@H]1CN(C(=O)c2nn(CC(=O)N3CCC(c4cccc5c(F)cccc45)CC3)c3c2CCC3)C[C@H](C)O1 [Example 85, 2-{3-[(2R,6S)-2,6-dimethylmorpholine-4-carbonyl]-5,6-dihydrocyclopenta[c]pyrazol-1(4H)-yl}-1-[4-(5-fluoronaphthalen-1-yl)piperidin-1-yl]ethan-1-one]	8.28

Now from value to compound:

pIC50	SMILES
6.69	C[C@@H]1CN(C(=O)c2nn(CC(=O)N3CCC(c4cccc(CC(F)(F)F)c4)CC3)c3c2CCC3)C[C@H](C)O1 [Example 164, 2-{3-[(2R,6S)-2,6-dimethylmorpholine-4-carbonyl]-5,6-dihydrocyclopenta[c]pyrazol-1(4H)-yl}-1-{4-[3-(2,2,2-trifluoroethyl)phenyl]piperidin-1-yl}ethan-1-one]
6.91	C[C@@H]1CN(C(=O)c2nn(CC(=O)N3CCC(c4cc(F)ccc4F)CC3)c3c2CCC3)C[C@H](C)O1 [Example 150, 1-[4-(2,5-difluorophenyl)piperidin-1-yl]-2-{3-[(2R,6S)-2,6-dimethylmorpholine-4-carbonyl]-5,6-dihydrocyclopenta[c]pyrazol-1(4H)-yl}ethan-1-one]
6.93	Cc1cc(Cl)cc(C2CCN(C(=O)Cn3nc(C(=O)N4C[C@@H](C)O[C@@H](C)C4)c4c3CCC4)CC2)c1 [Example 148, 1-[4-(3-chloro-5-methylphenyl)piperidin-1-yl]-2-{3-[(2R,6S)-2,6-dimethylmorpholine-4-carbonyl]-5,6-dihydrocyclopenta[c]pyrazol-1(4H)-yl}ethan-1-one]
7.05	Cc1cc(C2CCN(C(=O)Cn3nc(C(=O)N4C[C@@H](C)O[C@@H](C)C4)c4c3CCC4)CC2)cc(C)c1F [Example 139, 2-{3-[(2R,6S)-2,6-dimethylmorpholine-4-carbonyl]-5,6-dihydrocyclopenta[c]pyrazol-1(4H)-yl}-1-[4-(4-fluoro-3,5-dimethylphenyl)piperidin-1-yl] ethan-1-one]
7.18	C[C@@H]1CN(C(=O)c2nn(CC(=O)N3CCC(c4cccc(F)c4)CC3)c3c2CCC3)C[C@H](C)O1 [Example 130, 2-{3-[(2R,6S)-2,6-dimethylmorpholine-4-carbonyl]-5,6-dihydrocyclopenta[c]pyrazol-1(4H)-yl}-1-[4-(3-fluorophenyl)piperidin-1-yl]ethan-1-one]
7.56	C[C@@H]1CN(C(=O)c2nn(CC(=O)N3CCC(c4cc(F)cc(Cl)c4)CC3)c3c2CCC3)C[C@H](C)O1 [Example 99, 1-[4-(3-chloro-5-fluorophenyl)piperidin-1-yl]-2-{3-[(2R,6S)-2,6-dimethylmorpholine-4-carbonyl]-5,6-dihydrocyclopenta[c]pyrazol-1(4H)-yl}ethan-1-one]
7.28	Cc1ccc(C2CCN(C(=O)Cn3nc(C(=O)N4C[C@@H](C)O[C@@H](C)C4)c4c3CCC4)CC2)cc1C(F)(F)F [Example 120, 2-{3-[(2R,6S)-2,6-dimethylmorpholine-4-carbonyl]-5,6-dihydrocyclopenta[c]pyrazol-1(4H)-yl}-1-{4-[4-methyl-3-(trifluoromethyl)phenyl]piperidin-1-yl}ethan-1-one]
6.84	Cc1cc(C)cc(C2CCN(C(=O)Cn3nc(C(=O)N4C[C@@H](C)O[C@@H](C)C4)c4c3CCC4)CC2)c1 [Example 155, 2-{3-[(2R,6S)-2,6-dimethylmorpholine-4-carbonyl]-5,6-dihydrocyclopenta[c]pyrazol-1(4H)-yl}-1-[4-(3,5-dimethylphenyl)piperidin-1-yl]ethan-1-one]
7.19	C[C@@H]1CN(C(=O)c2nn(CC(=O)N3CCC(c4ccc(F)c(F)c4F)CC3)c3c2CCC3)C[C@H](C)O1 [Example 128, 2-{3-[(2R,6S)-2,6-dimethylmorpholine-4-carbonyl]-5,6-dihydrocyclopenta[c]pyrazol-1(4H)-yl}-1-[4-(2,3,4-trifluorophenyl)piperidin-1-yl]ethan-1-one]
7.52	Cc1ccc(C2CCN(C(=O)Cn3nc(C(=O)N4C[C@@H](C)O[C@@H](C)C4)c4c3CCC4)CC2)c(C)c1 [Example 105, 2-{3-[(2R,6S)-2,6-dimethylmorpholine-4-carbonyl]-5,6-dihydrocyclopenta[c]pyrazol-1(4H)-yl}-1-[4-(2,4-dimethylphenyl)piperidin-1-yl]ethan-1-one]
6.86	C[C@@H]1CN(C(=O)c2nn(CC(=O)N3CCC(c4cccc5c4OC(F)(F)O5)CC3)c3c2CCC3)C[C@H](C)O1 [Example 153, 1-[4-(2,2-difluoro-2H-1,3-benzodioxol-4-yl)piperidin-1-yl]-2-{3-[(2R,6S)-2,6-dimethylmorpholine-4-carbonyl]-5,6-dihydrocyclopenta[c]pyrazol-1(4H)-yl}ethan-1-one]
7.50	C[C@@H]1CN(C(=O)c2nn(CC(=O)N3CCC(c4cccc(Cl)c4)CC3)c3c2CCC3)C[C@H](C)O1 [Example 107, 1-[4-(3-chlorophenyl)piperidin-1-yl]-2-{3-[(2R,6S)-2,6-dimethylmorpholine-4-carbonyl]-5,6-dihydrocyclopenta[c]pyrazol-1(4H)-yl}ethan-1-one]
7.11	C[C@@H]1CN(C(=O)c2nn(CC(=O)N3CCC(c4ccc(C5CC5)cc4)CC3)c3c2CCC3)C[C@H](C)O1 [Example 131, 1-[4-(4-cyclopropylphenyl)piperidin-1-yl]-2-{3-[(2R,6S)-2,6-dimethylmorpholine-4-carbonyl]-5,6-dihydrocyclopenta[c]pyrazol-1(4H)-yl}ethan-1-one]
